Reference: ChEMBL document CHEMBL6182916, “Unexpected Discovery of a Novel Triphenylphosphonium Alkylalcohol That Triggers Cancer Cell Death via Mitophagy and Ferroptosis” (J Med Chem, 2025)
Active and inactive are the calls of the source. No cut-off for these calls is given here.

How the values were obtained:
HeLa [1] = experiment: Induction of mitophagy in human HeLa cells assessed as colocalization of mitochondria and lysosomes at 0.5 uM by lysotracker red staining based confocal microscopy analysis; assay type: functional, cell-based
HCC827 [2] = experiment: Induction of apoptosis in human HCC827 cells assessed as late apoptotic cells at 1 uM measured after 48 hrs by annexin V and PI staining based flow cytometry analysis (reference value: 2.18%); assay type: functional
HCC827 [3] = experiment: Induction of ferroptosis in human HCC827 cells assessed as decrease in GSH level incubated for 24 hrs by absorbance based analysis; assay type: functional, cell-based; conditions: dose 0.5-2 µM
HCC827 [4] = experiment: Induction of cell cycle arrest in human HCC827 cells assessed as accumulation of cells at G2 phase at 0.1 uM incubated for 24 hrs by PI staining based flow cytometry analysis (reference value: 7.15%); assay type: functional
HCC827 [5] = experiment: Downregulation of HK-2 expression level in human HCC827 cells 0.25 to 0.5 uM incubated for 24 hrs in presence of BFA by Western blot analysis; assay type: functional, cell-based; conditions: dose 0.25-0.5 µM
HEK-293T [6] = experiment: Downregulation of TIMM23 expression level in human HEK293T cells harbouring PINK knockout at 0.25 to 0.5 uM; assay type: functional, cell-based; conditions: dose 0.25-0.5 µM
HCC827 [7] = experiment: Antiproliferative activity against human HCC827 cells assessed as cell viability preincubated with FMK followed by compound addition and measured after 48 hrs by MTT assay; assay type: functional, cell-based
HCC827 [8] = experiment: Induction of apoptosis in human HCC827 cells assessed as necrotic cells at 1 uM measured after 24 hrs by annexin V and PI staining based flow cytometry analysis (Rvb =0.84%); assay type: functional
SK-LU-1 = experiment: Antiproliferative activity against human SK-LU-1 cells assessed as inhibition of cell growth measured after 72 hrs by MTT assay; assay type: functional, cell-based; conditions: SK-LU-1, 72 h
A549 = experiment: Antiproliferative activity against human A549 cells assessed as inhibition of cell growth measured after 72 hrs by MTT assay; assay type: functional, cell-based; conditions: A549, 72 h
[9] = Toxicity in female BALB/c mouse assessed as histopathological changes in liver at 30 mg/kg, ip measured for 7 days by H and E staining based analysis; assay type: organism-based; conditions: in vivo, 168 h, time 7 day
HCC827 [10] = experiment: Downregulation of VDAC1 expression level in human HCC827 cells 0.5 uM incubated for 3 to 24 hrs in presence of BFA by Western blot analysis; assay type: functional, cell-based; conditions: time 3-24 hrs
HEK-293T [11] = experiment: Downregulation of […] expression level in human HEK293T cells harbouring PINK knockout at 0.25 to 0.5 uM; assay type: functional, cell-based; conditions: dose 0.25-0.5 µM
[12] = Toxicity in female Kunming mouse assessed as animal death at 70 mg/kg, ip measured every two days for 7 days; assay type: organism-based; conditions: in vivo, 168 h, time 7 day
HCC827 [13] = experiment: Downregulation of VDAC1 expression level in human HCC827 cells incubated for 24 hrs by Western blot analysis; assay type: functional, cell-based; conditions: dose 0.25-5 µM
NCI-H1975 = experiment: Antiproliferative activity against human NCI-H1975 cells assessed as inhibition of cell growth measured after 72 hrs by MTT assay; assay type: functional, cell-based; conditions: NCI-H1975, 72 h
HCC827 [14] = experiment: Upregulation of PINK1 level in human HCC827 cells at 0.25 to 0.5 uM measured after 24 hrs; assay type: functional, cell-based; conditions: dose 0.25-0.5 µM
HCC827 [15] = experiment: Induction of apoptosis in human HCC827 cells assessed as viable cells at 0.25 uM measured after 48 hrs by annexin V and PI staining based flow cytometry analysis (reference value: 96.74%); assay type: functional; conditions: read-out: Activity
HCC827 [16] = experiment: Induction of mitochondrial dysfunction in human HCC827 cells assessed as reduction in glycolytic reserve at 0.125 to 5 uM incubated for 4 hrs by Seahorse XF96 extracellular flux analyzer; assay type: functional, cell-based; conditions: dose 0.125-5 µM
HCC827 [17] = experiment: Downregulation of TIMM23 expression level in human HCC827 cells at 0.5 uM incubated for 24 hrs in presence of Baf A1 by Western blot analysis; assay type: functional, cell-based
HCC827 [18] = experiment: Effect on NDUFB8 expression in human HCC827 cells at 0.25 to 0.5 uM incubated for 24 hrs by Western blot analysis; assay type: functional, cell-based; conditions: dose 0.25-0.5 µM
HCC827 [19] = experiment: Induction of cell cycle arrest in human HCC827 cells assessed as accumulation of cells at G1 phase at 0.1 uM incubated for 24 hrs by PI staining based flow cytometry analysis (reference value: 66.44%); assay type: functional
MDA-MB-231 = experiment: Antiproliferative activity against human MDA-MB-231 cells assessed as inhibition of cell growth measured after 72 hrs by MTT assay; assay type: functional, cell-based; conditions: MDA-MB-231, 72 h
HCC827 [20] = experiment: Induction of mitochondrial dysfunction in human HCC827 cells assessed as mitochondrial shrinkage by TEM analysis; assay type: functional, cell-based
HCC827 [21] = experiment: Induction of cell cycle arrest in human HCC827 cells assessed as accumulation of cells at S phase at 0.2 uM incubated for 24 hrs by PI staining based flow cytometry analysis (reference value: 26.41%); assay type: functional
Mitochondrial membrane = experiment: Induction of mitochondrial membrane depolarization in HEK293T cells assessed as JC-1 monomer ratio by measuring increase green fluorescence at 0.25 uM incubated for 4 hrs by JC-1 staining based confocal microscopy analysis; assay type: cell membranes; conditions: Homo sapiens
HCC827 [22] = experiment: Induction of apoptosis in human HCC827 cells assessed as early apoptotic cells at 1 uM measured after 48 hrs by annexin V and PI staining based flow cytometry analysis (reference value: 0.70%); assay type: functional
HCC827 [23] = experiment: Downregulation of SDHB expression in human HCC827 cells incubated for 24 hrs by Western blot analysis; assay type: functional, cell-based; conditions: dose 0.25-0.5 µM
HCC827 [24] = experiment: Induction of ferroptosis in human HCC827 cells assessed as decrease in GPX4 expression incubated for 24 hrs; assay type: functional, cell-based; conditions: dose 0.25-0.5 µM
[25] = Toxicity in female BALB/c mouse assessed as histopathological changes in lung at 30 mg/kg, ip measured for 7 days by H and E staining based analysis; assay type: organism-based; conditions: in vivo, 168 h, time 7 day
[26] = Toxicity in female BALB/c mouse assessed as animal death at 30 mg/kg, ip measured for 7 days; assay type: organism-based; conditions: in vivo, 168 h, time 7 day
HCC827 [27] = experiment: Induction of apoptosis in human HCC827 cells assessed as viable cells at 1 uM measured after 48 hrs by annexin V and PI staining based flow cytometry analysis (reference value: 95.10%); assay type: functional; conditions: read-out: Activity
HCC827 [28] = experiment: Antiproliferative activity against human HCC827 cells assessed as cell viability at 1 uM measured after 48 hrs in presence of deferoxamine by MTT assay relative to control; assay type: functional; conditions: read-out: Activity
HeLa [29] = experiment: Induction of mitophagy in human HeLa cells harbouring mCherry-GFP tag assessed as visible mCherry fluorescence at 0.5 uM incubated for 24 hrs by confocal microscopy analysis; assay type: functional, cell-based
[30] = Antiproliferative activity against HEK293T cells assessed as inhibition of cell growth measured after 72 hrs by MTT assay; assay type: toxicity, cell-based, HEK-293T; conditions: human
HCC827 [31] = experiment: Effect on ATP5A expression in human HCC827 cells at 0.25 to 0.5 uM; assay type: functional, cell-based; conditions: dose 0.25-0.5 µM
[32] = Drug accumulation in mitochondria of human HCC827 cells at 10 uM incubated for 5 mins; assay type: ADME; conditions: hcc827, 5 min
NCI-H1299 = experiment: Antiproliferative activity against human NCI-H1299 cells assessed as inhibition of cell growth measured after 72 hrs by MTT assay; assay type: functional, cell-based; conditions: NCI-H1299, 72 h
HCC827 [33] = experiment: Effect on UQCRC2 expression in human HCC827 cells at 0.25 to 0.5 uM incubated for 24 hrs by Western blot analysis; assay type: functional, cell-based; conditions: dose 0.25-0.5 µM

With `Cc1ccc([P+](CCCCCCCCCCO)(c2ccc(C)cc2)c2ccc(C)cc2)cc1.[Br-]` the Activity (HeLa [1]) was “Active”, the Activity (HCC827 [2]) was 0.75% and the Activity (HCC827 [3]) was “Dose-dependent-effect”. The Activity (HCC827 [4]) was 4.83%, the Activity (HCC827 [5]) was “inactive” and the Activity (HEK-293T [6]) was “inactive”. For the same compound, the IC50 (HCC827 [7]) was 110 nM, the Activity (HCC827 [8]) was 1.47% and the IC50 (SK-LU-1) was 230 nM. The IC50 (A549) was 490 nM, the Activity [9] was “Non-toxic” and the Activity (HCC827 [10]) was “inactive”. For the same compound, the Activity (HEK-293T [11]) was “inactive”, the Activity [12] was “Toxic” and the Activity (HCC827 [13]) was “Dose-dependent-effect”. For the same compound, the IC50 (NCI-H1975) was 200 nM, the Activity (HCC827 [14]) was “Active” and the viability at 0.25 µM (HCC827 [15]) was 92.6%. The Activity (HCC827 [16]) was “Active”, the Activity (HCC827 [17]) was “inactive” and the Activity (HCC827 [18]) was “Active”. The Activity (HCC827 [19]) was 71.14%, the IC50 (MDA-MB-231) was 100 nM and the Activity (HCC827 [20]) was “Active”. The Activity (HCC827 [21]) was 19.35%, the Activity (Mitochondrial membrane) was “inactive” and the Activity (HCC827 [22]) was 5.85%. For the same compound, the Activity (HCC827 [23]) was “Active”, the Activity (HCC827 [24]) was “Dose-dependent-effect” and the Activity [25] was “Non-toxic”. For the same compound, the Activity [26] was “Non-toxic”, the viability at 1 µM (HCC827 [27]) was 91.9% and the viability at 1 µM (HCC827 [28]) was 51.4%. For the same compound, the Activity (HeLa [29]) was “Active”, the IC50 at 72 h [30] was 1520 nM and the Activity (HCC827 [31]) was “Active”. The Drug uptake [32] was 93%, the IC50 (NCI-H1299) was 210 nM and the Activity (HCC827 [33]) was “Active”.
